{
  "source": "patent US3960859A",
  "about": "“21-Deoxydihydroajmaline derivatives” (VEB Arzneimittelwerk Dresden, priority 1975, dated 1976)",
  "key": {"[1]": {"conditions": "background statement; cited from earlier work"}, "in vivo": {"assay": "in vivo", "conditions": "for Q: Table 1, ratio not defined in text (equals LD50/ED20)", "excerpt": "(§1) In the procedures the term ED20 designates the dose in mg/kg at which only isolated or sporadic ventricular extrasystoles occur."}, "[2]": {"tested_on": "aconitine-induced ventricular extrasystoles", "assay": "Aconitine test procedures carried out in rats (antiarrhythmic activity)", "assay_type": "in vivo", "excerpt": "as §1"}, "[3]": {"tested_on": "fibrillation or flutter generated by aconitine", "assay_type": "in vivo", "conditions": "dog"}},
  "note": "Where a name gives a salt, the structure may show the parent alone.",
  "data": [
    {"smiles": "CCC(C)C1CC2NC3CC4(c5ccccc5N(C)C24)C(O)C31", "note": "(stereo not shown) [21-deoxydihydroajmaline]", "values": [
      {"measurement": "rhythm regulating / antiarrhythmic activity (in words)", "setting": "[1]", "result": "rhythm regulating activity is extensively lost"}
    ]},
    {"smiles": "CC[C@H]1[C@@H]2C[C@H]3[C@@H]4N(C)c5ccccc5[C@]45C[C@@H]([C@H]2[C@H]5O)N3[C@@H]1O", "note": "[Ajmaline, ajmaline]", "values": [
      {"measurement": "Q", "setting": "in vivo", "result": 12.2},
      {"measurement": "LD50", "setting": "in vivo; rat, in vivo", "result": 26, "unit": "mg/kg"},
      {"measurement": "rhythm regulating / antiarrhythmic activity (in words)", "setting": "[1]", "result": "valuable antiarhythmic properties"},
      {"measurement": "ED20", "setting": "[2]; Rattus norvegicus", "result": 2.13, "unit": "mg/kg"}
    ]},
    {"smiles": "CCC[N+]12[C@H](O)[C@@H](CC)[C@@H]3C[C@H]1[C@@H]1N(C)c4ccccc4[C@]14C[C@H]2[C@@H]3[C@H]4O", "note": "[N-Propylajmaline, N-propylajmaline]", "values": [
      {"measurement": "LD50", "setting": "in vivo; Table 1, aconitine test procedures in rats, unit not given", "result": 1.4},
      {"measurement": "undesirable side effects, share of cases", "setting": "[3]; N-propylajmaline (0.3 mg/kg)", "result": "at least 30%"},
      {"measurement": "ED20", "setting": "[2]; aconitine test, rats, dose at which only isolated or sporadic ventricular extrasystoles occur", "result": 0.17, "unit": "mg/kg"}
    ]},
    {"smiles": "CCC(C)C1CC2C3N(C)c4ccccc4C34CC(C1C4O)N2CCN1CCCCC1", "note": "(stereo not drawn) [Example 3, 4-(β-piperidinoethyldeoxydihydroajmaline-dihydrochloride)]", "values": [
      {"measurement": "Q", "setting": "in vivo", "result": 21.6},
      {"measurement": "LD50", "setting": "in vivo; rat, in vivo", "result": 5.4, "unit": "mg/kg"},
      {"measurement": "side effects", "setting": "[3]; Example 3 (0.6 mg/kg)", "result": "no side effects"},
      {"measurement": "therapeutic effectiveness against aconitine fibrillation or flutter", "setting": "[3]; Example 3 at 0.6 mg/kg compared with N-propylajmaline at 0.3 mg/kg", "result": "about the same therapeutic effectiveness as N-propylajmaline administered in a dose of 0.3 mg/kg"},
      {"measurement": "ED20", "setting": "[2]; Rattus norvegicus", "result": 0.25, "unit": "mg/kg"}
    ]}
  ]
}
